# In publication PMC9021288 (Nature Communications, 2022):
# Where “and” joins values, the source holds several entries; their conditions need not be identical. Equal values may be shown once.
# Test: 7-day Maximum Tolerated Dose 1 (MTD1) rat study
# Format: in vivo, Wistar Han rats
# Design: AUC(0 - t) / Cmax / Urea / Glucose / Triglycerides: unit not given here
# Conditions: for Glucose / Triglycerides / Urea: Female
# Excerpt: See the summary of the study design in Supplementary Table 31. Nine-week-old Wistar (Crl:WI (Han)) rats were obtained from Charles River Laboratories (Domaine des Oncins, Saint-Germain-Nuelles, France). […] Animals were examined daily for any altered clinical signs, body weights, and food consumption. Blood samples were taken at different timepoints after the test item administration, and toxicokinetic exposure assessed under the defined experimental conditions and analyzed using Phoenix (version 6.4 and 1.4) (Supplementary Table 32). Measurements included hematology and clinical chemistry measurements. Animals were euthanized and necropsied at the end of the dosing period. At necropsy, major organ systems and tissues were collected and weighed and then examined for gross lesions as well as for microscopic changes.
compound,measurement,setting,value
C[C@@H](CNC(=O)[C@H](O)C(C)(C)CO)NC(=O)c1cc(F)c(F)cc1F [MMV693183],mortality,"60, 200, 600 mg/kg/day, 7 days",no mortality occurred
same,Glucose,60 mg/kg,6.25 and 5.62 and 5.48
same,Triglycerides,60 mg/kg,0.3 and 0.46 and 0.39
same,Urea,60 mg/kg,6.7 and 8 and 8.3
same,Glucose,200 mg/kg,5.19 and 5.85 and 7.06
same,Triglycerides,200 mg/kg,0.51 and 0.91 and 0.6
same,Urea,200 mg/kg,7.8 and 8 and 8.4
same,Glucose,600 mg/kg,6.4 and 7.42 and 7.56
same,Triglycerides,600 mg/kg,0.6 and 0.51 and 0.37
same,Urea,600 mg/kg,7.4 and 6.8 and 9.9
same,Liver weight,"MTD1 60 mg/kg/day, Females",4.77 g
same,AUC(0 - t),"MTD1 60 mg/kg/day, Females, Day 1 then Day 7",88.9
same,Liver weight,"MTD1 60 mg/kg/day, Males",7.73 g
same,Liver weight,"MTD1 200 mg/kg/day, Females",6.00 g
same,Liver weight,"MTD1 200 mg/kg/day, Males",8.66 g
same,Liver weight,"MTD1 600 mg/kg/day, Females",7.44 g
same,Liver weight,"MTD1 600 mg/kg/day, Males",11.22 g
same,Concentration,"MTD1 females, Day 1, 60 mg/kg/day, 0 h",LLOQ
same,Concentration,"MTD1 females, Day 1, 60 mg/kg/day, 1 h",33.6 µM and 28.3 µM
same,Concentration,"MTD1 females, Day 1, 60 mg/kg/day, 4 h",2.9 µM and 3.29 µM
same,Concentration,"MTD1 females, Day 1, 60 mg/kg/day, 8 h",1.05 µM and 0.628 µM
same,Concentration,"MTD1 females, Day 1, 60 mg/kg/day, 24 h",LLOQ
same,Concentration,"MTD1 females, Day 1, 200 mg/kg/day, 0 h",LLOQ
same,Concentration,"MTD1 females, Day 1, 200 mg/kg/day, 1 h",86.7 µM and 116 µM
same,Concentration,"MTD1 females, Day 1, 200 mg/kg/day, 4 h",21.3 µM and 11.6 µM
same,Concentration,"MTD1 females, Day 1, 200 mg/kg/day, 8 h",6.7 µM and 4.68 µM
same,Concentration,"MTD1 females, Day 1, 600 mg/kg/day, 0 h",LLOQ
same,Concentration,"MTD1 females, Day 1, 600 mg/kg/day, 1 h",311 µM
same,Concentration,"MTD1 females, Day 1, 600 mg/kg/day, 4 h",74.9 µM and 64.8 µM
same,Concentration,"MTD1 females, Day 1, 600 mg/kg/day, 8 h",49.5 µM and 25.8 µM
same,Concentration,"MTD1 females, Day 1, 600 mg/kg/day, 24 h",LLOQ
same,Concentration,"MTD1 females, Day 7, 60 mg/kg/day, 0 h",LLOQ
same,Concentration,"MTD1 females, Day 7, 60 mg/kg/day, 1 h",21.8 µM and 20.3 µM
same,Concentration,"MTD1 females, Day 7, 60 mg/kg/day, 4 h",2.9 µM and 3.02 µM
same,Concentration,"MTD1 females, Day 7, 60 mg/kg/day, 8 h",0.604 µM and 1.2 µM
same,Concentration,"MTD1 females, Day 7, 60 mg/kg/day, 24 h",LLOQ
same,Concentration,"MTD1 females, Day 7, 200 mg/kg/day, 0 h",LLOQ
same,Concentration,"MTD1 females, Day 7, 200 mg/kg/day, 1 h",10.4 µM and 9.61 µM
same,Concentration,"MTD1 females, Day 7, 200 mg/kg/day, 4 h",5.35 µM and 3.22 µM
same,Concentration,"MTD1 females, Day 7, 200 mg/kg/day, 8 h",0.804 µM and 0.957 µM
same,Concentration,"MTD1 females, Day 7, 200 mg/kg/day, 24 h",LLOQ
same,Concentration,"MTD1 females, Day 7, 600 mg/kg/day, 0 h",0.568 µM and 0.368 µM
same,Concentration,"MTD1 females, Day 7, 600 mg/kg/day, 1 h",15.1 µM and 29.6 µM
same,Concentration,"MTD1 females, Day 7, 600 mg/kg/day, 4 h",8.62 µM and 9.68 µM
same,Concentration,"MTD1 females, Day 7, 600 mg/kg/day, 8 h",6.83 µM and 6.42 µM
same,Concentration,"MTD1 males, Day 1, 60 mg/kg/day, 0 h",LLOQ
same,Concentration,"MTD1 males, Day 1, 60 mg/kg/day, 1 h",12 µM and 13.7 µM
same,Concentration,"MTD1 males, Day 1, 60 mg/kg/day, 4 h",1.09 µM and 1.97 µM
same,Concentration,"MTD1 males, Day 1, 60 mg/kg/day, 24 h",LLOQ
same,Concentration,"MTD1 males, Day 1, 200 mg/kg/day, 0 h",LLOQ
same,Concentration,"MTD1 males, Day 1, 200 mg/kg/day, 1 h",98.9 µM and 133 µM
same,Concentration,"MTD1 males, Day 1, 200 mg/kg/day, 4 h",14 µM and 18.5 µM
same,Concentration,"MTD1 males, Day 1, 200 mg/kg/day, 24 h",LLOQ
same,Concentration,"MTD1 males, Day 1, 600 mg/kg/day, 0 h",LLOQ
same,Concentration,"MTD1 males, Day 1, 600 mg/kg/day, 1 h",189 µM and 295 µM
same,Concentration,"MTD1 males, Day 1, 600 mg/kg/day, 4 h",69.9 µM and 98.6 µM
same,Concentration,"MTD1 males, Day 7, 60 mg/kg/day, 0 h",LLOQ
same,Concentration,"MTD1 males, Day 7, 60 mg/kg/day, 1 h",2.78 µM and 3.29 µM
same,Concentration,"MTD1 males, Day 7, 60 mg/kg/day, 8 h",LLOQ
same,Concentration,"MTD1 males, Day 7, 60 mg/kg/day, 24 h",LLOQ
same,Concentration,"MTD1 males, Day 7, 200 mg/kg/day, 0 h",LLOQ
same,Concentration,"MTD1 males, Day 7, 200 mg/kg/day, 1 h",15.5 µM and 8.65 µM
same,Concentration,"MTD1 males, Day 7, 200 mg/kg/day, 4 h",2.92 µM and 2.95 µM
same,Concentration,"MTD1 males, Day 7, 200 mg/kg/day, 8 h",1.04 µM and 0.952 µM
same,Concentration,"MTD1 males, Day 7, 200 mg/kg/day, 24 h",LLOQ
same,Concentration,"MTD1 males, Day 7, 600 mg/kg/day, 0 h",LLOQ
same,Concentration,"MTD1 males, Day 7, 600 mg/kg/day, 4 h",4.9 µM and 5.09 µM
same,Concentration,"MTD1 males, Day 7, 600 mg/kg/day, 24 h",LLOQ
same,Liver weight,"MTD1 study, females, 60 mg/kg/day, individual animals",4.84 g and 4.87 g
same,Liver weight,"MTD1 study, females, 200 mg/kg/day, individual animals",6.04 g and 5.86 g
same,Liver weight,"MTD1 study, females, 600 mg/kg/day, individual animals",6.96 g
same,Liver weight,"MTD1 study, males, 60 mg/kg/day, individual animals",8.13 g and 7.71 g
same,Liver weight,"MTD1 study, males, 200 mg/kg/day, individual animals",7.63 g and 8.4 g
same,Liver weight,"MTD1 study, males, 600 mg/kg/day, individual animals",11.11 g and 12.08 g
